Where no end group is shown, it is not given here.
Tests used:
DR3DQ2×RIP-B7.1 mice = experiment: Adjuvanted antigen priming (disease acceleration), diabetes monitoring; assay type: in vivo
Description: Mice were monitored weekly for diabetes up to 20 weeks post prime. The grey dotted line indicates the expected level of spontaneous diabetes in mice aged 12 weeks on day 0 of the experiments (based on the data in FIG. 1 and normalised for gender). Statistical analysis with Mantel-Cox Log-rank test. **p<0.01, ***p<0.001. • (b-e) Blood glucose levels for each individual mouse in the group immunised with PBS (b), murine proinsulin-2 peptides (c), human GAD65 (d) or fragment of human IA-2 (e).
Mice were monitored weekly for diabetes up to 20 weeks post prime. The grey dotted line indicates the expected level of spontaneous diabetes in mice aged 8 weeks on day 0 of the experiment, based on the data in FIG. 1 and normalised for gender. Statistical analysis with Mantel-Cox Log-rank test. ***p<0.001 for B23-C20 versus B1-30 or C10-A6. ? p<0.01 for B23-C20 versus C25-A21. Rest not significant. • (b-e) Blood glucose levels for each individual mouse in the group immunised with B1-30 (b), B23-C20 (c), C10-A6 (d) or C25-A21 (e).
(a) DR3DQ2×RIP-B7.1 mice aged 10-14 weeks were challenged with 100 μg of either GP-15 (2 ♂3♀), YA-15 (2 ♂3♀), ME-15 (3 ♂2♀), RG-15 (3 ♂2♀), DA-15 (2 ♂3♀) or VD-14 (3♂2♀) peptide in TiterMax Gold adjuvant s.c. on days 0 and 14, with 200 ng pertussis toxin administered i.p on days 0 and 1 or 2. Mice were monitored weekly for diabetes up to 20 weeks post prime. The grey dotted line indicates the expected level of spontaneous diabetes in mice aged 14 weeks on day 0 of the experiments (based on the data in FIG. 1 and normalised for gender). Statistical analysis with Mantel-Cox Log-rank test. *p<0.05 for RG-15 versus YA-15, **p<0.01 for ME-15 versus GP-15, YA-15 or VD-14. ? p<0.05 for ME-15 versus DA-15. Rest not significant. (b-f) Blood glucose levels for each individual mouse in the group immunised with GP-15 (b), YA-15 (c), ME-15 (d), RG-15 (e), DA-15 (f), VD-14 (g).
HLA-DR3-DQ2-transgenic (B6.hCD4.DR3-DQ2.MHCII^−/− mice (described previously (de Kauwe A L et al. (2009) J Immunol 182(12): 7440-7450), and obtained from J. McCluskey) were crossed with RIP-B7.1-transgenic animals (B6.Cg-Tg(Ins2-CD80)3B7Flv/Orl, EMMA, Orleans, France; ID 00216) in order to obtain HLA-DR3-DQ2^+huCD4^+IA/IE^−/−RIP.B7.1^+ mice, hereafter referred to as DR3DQ2×RIP-B7.1. DR4×RIP-B7.1 mice, generated by crossing B6.129S2-H2-Ab1^tm/Gru Tg(HLA-DRA/H2-Ea,HLA-DRB1*0401/H2-Eb) 1Kito mice with B6.Cg-Tg(Ins2-CD80)3B7Flv/Orl, were described previously (Verhagen J, et al. (2018) Sci Rep 8(1): 14106). All animals were kept under specific-pathogen-free conditions, in individually ventilated cages, at the KCL Biological Services Unit on 12-hour light/dark cycles with food and water provided ad libitum. Experiments were conducted in accordance with UK Home Office regulations under a project license held by M. Peakman. All work was subject to assessment and approved locally by Guy's animal welfare and ethical review board (AWERB).
All mice were monitored regularly for unprovoked glycosuria using Diastix strips (Bayer, Basel, Switzerland). Some mice were monitored weekly for hyperglycaemia, from the age of 6-7 weeks, by a minimal puncture of the tail vein at alternate sides of the tail and analysis using a OneTouch Verio meter and strips (Lifescan, High Wycombe, UK), in order to closely monitor progression towards spontaneous diabetes. Mice were considered diabetic following a blood glucose reading >16.7 mmol/l (300 mg/dl) in addition to confirmed glycosuria. […] Mice (aged 6-14 weeks) were primed with 100 μg of peptides or protein in TiterMax Gold adjuvant (TiterMax, Norcross, GA, USA) subcutaneously (s.c.) at the base of the tail and received a second dose s.c. distributed over the inguinal region on day 14. Mice received 200 ng Pertussis toxin (Sigma, Poole, UK) in PBS intraperitoneally (i.p.) on days 0 and 1 or 2. Mice were then monitored weekly for hyperglycaemia and for glycosuria. […]

[1] = test system: human peripheral blood mononuclear cells (PBMCs); experiment: ELISPOT assay of cytokine responses to proinsulin peptides; assay type: cell-based; details: 10 μg/ml peptide, 48 hours
Description: Responses to proinsulin B30-C13 in human donors. PBMC from individuals with either HLA-DR3-DQ2 (a) or any other haplotype (b) were stimulated in vitro with human proinsulin-derived peptide B30-C13 or C19-A3 prior to detection of IFNγ by ELISPOT assay. HLA-DR3-DQ2 individuals, n=3; non-HLA-DR3-DQ2, n=6. *p<0.05, ratio paired t test.
Responses to proinsulin B23-C20, B29-C11, B29-C14, B30-C13 and C-1-C14 peptides are shown. PBMCs from 5 type 1 diabetes patients with HLA-DR3-DQ2 (identified as #1-#5) were stimulated in vitro with human proinsulin-derived peptides B23-C20, B29-C11, B29-C14, B30-C13 and C−1-C14 prior to detection of IFN-γ and IL-17 (pro-inflammatory responses) and IL-10 (regulatory response) by ELISPOT assay. […]
ELISPOT assays were carried out using human peripheral blood mononuclear cells (PBMCs) isolated from fresh heparinized blood. […] The cytokine secretion assay was performed using the IFN-γ, IL-17 and IL-10 ELISPOT kits (U-CyTech) according to the manufacturer's instructions and plates were analysed using an automated ELISPOT Bioreader 6000 (Bio-Sys) and relevant software. Data are expressed as the total number of spots in triplicate wells after peptide stimulation divided by the total number of spots in diluent only control wells (stimulation index [SI]) or as responder CD4 T cells/10^6 PBMCs.

RIP.CD80×DR3DQ2 mice = experiment: Tolerance induction against accelerated diabetes; assay type: in vivo; details: 10 μg soluble peptide s.c., 6 injections, before and after priming with murine B23-C20 in adjuvant; ME-15 versus YA-15 p<0.01, versus VD-14 p<0.05
Protocol: FIG. 6 Tolerance induction against accelerated diabetes in RIP.CD80×DR3DQ2 mice. (a) Schedule of dosing. Mice aged 7-8 weeks (n=7 per group) were treated with soluble 14/15-mer peptide in PBS subcutaneously (s.c.) before and after acceleration of diabetes development by antigenic priming with 30-mer murine proinsulin-2 peptide B23-C20 in TiterMax Gold adjuvant on days 0 and 14. Pertussis toxin administered intraperitoneally (i.p.) on days 0 and 2. (b) Diabetes incidence in mice treated with 14/15-mer peptide ME-15 (1♀6♂), YA-15 (4♀3♂) or VD-14 (3♀4♂). Statistical analysis with Mantel-Cox Log-rank test. ME-15 versus YA-15, p<0.01; ME versus VD-14, p<0.05.
All mice were monitored regularly for unprovoked glycosuria using Diastix strips (Bayer, Basel, Switzerland). Some mice were monitored weekly for hyperglycaemia, from the age of 6-7 weeks, by a minimal puncture of the tail vein at alternate sides of the tail and analysis using a OneTouch Verio meter and strips (Lifescan, High Wycombe, UK), in order to closely monitor progression towards spontaneous diabetes. Mice were considered diabetic following a blood glucose reading >16.7 mmol/l (300 mg/dl) in addition to confirmed glycosuria. […] Mice were then monitored weekly for hyperglycaemia and for glycosuria. […]

Solubility of peptide = assay type: physicochemical
[2] = adjuvanted priming, follow up to 20 weeks post prime

VAQLELGGGPGAGD (listed as Mus musculus) [VD-14, murine proinsulin-2 14-mer]
diabetes acceleration / incidence versus control or spontaneous onset (in words) (DR3DQ2×RIP-B7.1 mice; [2]): cannot

TRREAEDLQVGQVELG (listed as Homo sapiens) [B30-C13, fragment of human proinsulin, residues B30-C13]
IFNγ ELISPOT response, HLA-DR3-DQ2 donors versus donors without this haplotype ([1]; HLA-DR3-DQ2 n=3, non-HLA-DR3-DQ2 n=6): greater response | IFNγ ELISPOT response versus control peptide C19-A3 ([1]; p<0.05 ratio paired t test): greater than that to our control peptide C19-A3

GAD65: Recombinant human GAD65 (T-cell GAD) purchased from Diamyd Medical
diabetes acceleration / incidence versus control or spontaneous onset (in words) (DR3DQ2×RIP-B7.1 mice; [2]): only priming with proinsulin peptides clearly hastened diabetes onset and increased incidence

MSRREVEDPQVAQLE (listed as Mus musculus) [ME-15]
tolerogenic effect on diabetes induced with B23-C20 (RIP.CD80×DR3DQ2 mice): tolerogenic effect | diabetes acceleration / incidence versus control or spontaneous onset (in words) (DR3DQ2×RIP-B7.1 mice; [2]): markedly higher disease incidence during follow up than would be expected spontaneously

GFFYTPMSRREVEDPQVAQLELGGGPGAGD (listed as Mus musculus) [B23-C20, murine 30-mer proinsulin-2 peptide B23-C20]
mean time of onset of diabetes (SD) (DR3DQ2×RIP-B7.1 mice; 100 μg in TiterMax Gold adjuvant s.c. days 0 and 14, pertussis toxin): 49±16.2 days post prime | diabetes incidence (DR3DQ2×RIP-B7.1 mice; by day 84 post prime, 100 μg in TiterMax Gold adjuvant): 100% | diabetes acceleration / incidence versus control or spontaneous onset (in words) (DR3DQ2×RIP-B7.1 mice; mouse, in vivo): most overt disease exacerbation, with very rapid development of diabetes

REVEDPQVAQLELGG [RG-15, REVEDPQVAQLELGG]
solubility in aqueous solution (Solubility of peptide; aqueous solution): highly insoluble | solubility in dimethyl sulfoxide (Solubility of peptide; dimethyl sulfoxide): soluble

DPQVAQLELGGGPGA (listed as Mus musculus) [DA-15, murine proinsulin-2 15-mer]
diabetes acceleration / incidence versus control or spontaneous onset (in words) (DR3DQ2×RIP-B7.1 mice; [2]): cannot
